ChEMBL document CHEMBL1201862, “PubChem BioAssay data set” (2004)
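Where inhibition never reached the appropriate level, the endpoint shown equals the highest concentration tested. Otherwise, values were interpolated linearly from a five-concentration, 48-hour dose response in 96-well plates. The concentration for 50% growth inhibition is given as GI50.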 The source made the active and inactive calls. No stated cut-off is given here; in the data, active = GI50 up to about 1.1 µM and inactive = higher.

Legend:
Experiment in all cases: growth of human tumour cells (NCI), 48 h
[1] = tested on: 786-0
[2] = tested on: A498
[3] = tested on: A549
[4] = tested on: ACHN
[5] = tested on: CAKI-1
[6] = tested on: CCRF-CEM
[7] = tested on: COLO 205
[8] = tested on: DLD-1
[9] = tested on: DMS-114
[10] = tested on: DMS-273
[11] = tested on: EKVX
[12] = tested on: HCC 2998
[13] = tested on: HCT-116
[14] = tested on: HCT-15
[15] = tested on: HL-60
[16] = tested on: HOP-62
[17] = tested on: HOP-92
[18] = tested on: HT-29
[19] = tested on: IGROV-1
[20] = tested on: K562
[21] = tested on: KM-20L2
[22] = tested on: KM12
[23] = tested on: LOX IMVI
[24] = tested on: LXFL 529
[25] = tested on: M14
[26] = tested on: M19-MEL
[27] = tested on: MOLT-4
[28] = tested on: Malme-3M
[29] = tested on: NCI-H226
[30] = tested on: NCI-H23
[31] = tested on: NCI-H460
[32] = tested on: NCI-H522
[33] = tested on: OVCAR-3
[34] = tested on: OVCAR-4
[35] = tested on: OVCAR-5
[36] = tested on: OVCAR-8
[37] = tested on: RPMI-8226
[38] = tested on: RXF 393
[39] = tested on: RXF 631
[40] = tested on: SF-268
[41] = tested on: SF-539
[42] = tested on: SK-MEL-28
[43] = tested on: SK-MEL-2
[44] = tested on: SK-MEL-5
[45] = tested on: SK-OV-3
[46] = tested on: SN12C
[47] = tested on: SNB-19
[48] = tested on: SNB-75
[49] = tested on: SNB-78
[50] = tested on: SR
[51] = tested on: SW-620
[52] = tested on: TK-10
[53] = tested on: U-251
[54] = tested on: UACC-257
[55] = tested on: UO-31
[56] = tested on: XF498

SMILES: Cc1nsc2cc(Cl)n(C)c(=O)c12
- GI50 [1]: > 100 µM (inactive)
- GI50 [2]: > 100 µM (inactive)
- GI50 [3]: > 100 µM (inactive)
- GI50 [4]: > 100 µM (inactive)
- GI50 [5]: 40.4 µM (inactive)
- GI50 [6]: > 100 µM (inactive)
- GI50 [7]: > 100 µM (inactive)
- GI50 [8]: > 100 µM (inactive)
- GI50 [9]: > 100 µM (inactive)
- GI50 [10]: > 100 µM (inactive)
- GI50 [11]: 50.4 µM (inactive)
- GI50 [12]: 0.991 µM (active)
- GI50 [13]: > 100 µM (inactive)
- GI50 [14]: > 100 µM
- GI50 [15]: > 100 µM (inactive)
- GI50 [16]: > 100 µM (inactive)
- GI50 [17]: 59.7 µM (inactive)
- GI50 [18]: > 100 µM (inactive)
- GI50 [19]: > 100 µM (inactive)
- GI50 [20]: > 100 µM (inactive)
- GI50 [21]: > 100 µM (inactive)
- GI50 [22]: > 100 µM (inactive)
- GI50 [23]: > 100 µM (inactive)
- GI50 [24]: > 100 µM (inactive)
- GI50 [25]: > 100 µM (inactive)
- GI50 [26]: > 100 µM (inactive)
- GI50 [27]: > 100 µM (inactive)
- GI50 [28]: > 100 µM (inactive)
- GI50 [29]: > 100 µM (inactive)
- GI50 [30]: > 100 µM (inactive)
- GI50 [31]: > 100 µM (inactive)
- GI50 [32]: 24.8 µM (inactive)
- GI50 [33]: > 100 µM (inactive)
- GI50 [34]: > 100 µM (inactive)
- GI50 [35]: > 100 µM (inactive)
- GI50 [36]: > 100 µM (inactive)
- GI50 [37]: > 100 µM (inactive)
- GI50 [38]: > 100 µM (inactive)
- GI50 [39]: > 100 µM (inactive)
- GI50 [40]: > 100 µM (inactive)
- GI50 [41]: > 100 µM (inactive)
- GI50 [42]: > 100 µM (inactive)
- GI50 [43]: > 100 µM (inactive)
- GI50 [44]: > 100 µM (inactive)
- GI50 [45]: > 100 µM (inactive)
- GI50 [46]: > 100 µM (inactive)
- GI50 [47]: > 100 µM (inactive)
- GI50 [48]: 66.4 µM (inactive)
- GI50 [49]: > 100 µM (inactive)
- GI50 [50]: > 100 µM (inactive)
- GI50 [51]: > 100 µM (inactive)
- GI50 [52]: > 100 µM (inactive)
- GI50 [53]: > 100 µM (inactive)
- GI50 [54]: > 100 µM (inactive)
- GI50 [55]: > 100 µM (inactive)
- GI50 [56]: > 100 µM (inactive)
